This note sets out measurements from ChEMBL document CHEMBL5247613, “Design, synthesis and biological evaluation of a new class of Hsp90 inhibitors vibsanin C derivatives” (Eur J Med Chem, 2022).

pIC50: −log10 of the molar value. Activity calls are given as the source filed them. The calls are words filed in the database; no cut-off is given here.

Assay [1] has as its system Reticulocyte. Briefly: Inhibition of HSP90 in rabbit reticulocyte lysates at 10 uM incubated for 3 hrs by denatured luciferase refolding assay. The settings on record: Oryctolagus cuniculus. Type of assay: subcellular.
A short description of assay [2]: Inhibition of HSP90 in rabbit reticulocyte lysates incubated for 3 hrs by denatured luciferase refolding assay. Type of assay: subcellular, Oryctolagus cuniculus.
Assay [3] has as its system Reticulocyte. Briefly: Inhibition of HSP90 in rabbit reticulocyte lysates at 500 uM incubated for 3 hrs by denatured luciferase refolding assay. The settings on record: Oryctolagus cuniculus. Type of assay: subcellular.
Assay [4] deals with T1, Heat shock protein HSP90 (Homo sapiens) (UniProt P07900+P08238). Description: Binding affinity to full length HSP90 (unknown origin) expressed in Escherichia coli BL21(DE3) cells at 20 uM by NMR STD assay.
In assay [5] the test system is HL-60. Briefly: Antiproliferative activity against human HL-60 cells assessed as reduction in cell viability incubated for 48 hrs by MTT assay. Type of assay: functional, cell-based. The conditions noted are these: HL-60, 48 h.
The subject of assay [6] is SW480. Briefly: Antiproliferative activity against human SW480 cells assessed as reduction in cell viability incubated for 48 hrs by MTT assay. The format is functional, cell-based. The settings on record: SW480, 48 h.
Assay [7] has as its system SMMC-7721. Briefly: Antiproliferative activity against human SMMC-7721 cells assessed as reduction in cell viability incubated for 48 hrs by MTT assay. The conditions noted are these: SMMC-7721, 48 h. Type of assay: functional, cell-based.
The subject of assay [8] is MCF7. Briefly: Antiproliferative activity against human MCF7 cells assessed as reduction in cell viability incubated for 48 hrs by MTT assay. The conditions noted are these: MCF7, 48 h. The format is functional, cell-based.
For assay [9], the target named is T1, Heat shock protein HSP90 (Homo sapiens). Description: Inhibition of HSP90 in human HL-60 cells assessed as decrease in CDK4 protein expression incubated for 24 hrs by western blot analysis. Type of assay: cell-based. The conditions noted are these: dose 1-10 µM.
The target is the same in assay [10]. Briefly: Inhibition of HSP90 in human HL-60 cells assessed as increase in HSP27 protein expression incubated for 24 hrs by western blot analysis. The format is cell-based. The settings on record: dose 1-10 µM.
Assay [11] concerns A549. Description: Antiproliferative activity against human A549 cells assessed as reduction in cell viability incubated for 48 hrs by MTT assay. The format is functional, cell-based. The settings on record: A549, 48 h.

Consider `CC(=O)C[C@@H]1C(=O)C(CNc2ccc(F)cc2)=CC[C@](C)(CCC=C(C)C)[C@H]1/C=C/OC(=O)C=C(C)C`, for which the inhibition in assay [1] worked out at 64.5%. In turn, `CC(C)=CCC[C@@]1(C)CC=C(CNc2ccc(F)cc2)c2oc(C)cc2[C@@H]1/C=C/OC(=O)C=C(C)C` yielded an inhibition in assay [1] of 13.1%. As for `CC(C)=CCC[C@@]1(C)CC=C(CO)c2[nH]c(C)cc2[C@@H]1/C=C/OC(=O)C=C(C)C`, the inhibition in assay [1] amounted to 10.6%. `CC(C)=CCC[C@@]1(C)CC=C(COC(=O)c2ccc3cc[nH]c3c2)c2[nH]c(C)cc2[C@@H]1/C=C/OC(=O)C=C(C)C` displayed an inhibition in assay [1] of 50.8%. `CO[C@@H]1[C@@H](OC(N)=O)[C@@H](O)[C@H](Oc2ccc3c(O)c(NC(=O)c4ccc(O)c(CC=C(C)C)c4)c(=O)oc3c2C)OC1(C)C` [NOVOBIOCIN] showed a pIC50 in [2] of 3.33. Also, in [3], the inhibition was 78.9%.

In assay [1], `CC(=O)C[C@@H]1C(=O)C(CN2CCN(C(C)C)CC2)=CC[C@](C)(CCC=C(C)C)[C@H]1/C=C/OC(=O)C=C(C)C` showed an inhibition of 23.8%. On to `CC(=O)C[C@@H]1C(=O)C(CCl)=CC[C@](C)(CCC=C(C)C)[C@H]1/C=C/OC(=O)C=C(C)C`, for which, in [1], the inhibition worked out at 53.1%. As for `CC(C)=CCC[C@@]1(C)CC=C(Cn2ccnc2)c2oc(C)cc2[C@@H]1/C=C/OC(=O)C=C(C)C`, the inhibition in [1] amounted to 37.1%. For `CC(=O)C[C@@H]1C(=O)C(COC(=O)C2CCCCC2)=CC[C@](C)(CCC=C(C)C)[C@H]1/C=C/OC(=O)C=C(C)C`, the inhibition in [1] was 40.3%. In turn, `CC(=O)C[C@@H]1C(=O)C(CF)=CC[C@](C)(CCC=C(C)C)[C@H]1/C=C/OC(=O)C=C(C)C` gave a negative logarithm of the IC50 (pIC50) in assay [2] of 5.39. For the same compound, the inhibition in assay [1] came to 84.3%. `CC(=O)C[C@@H]1C(=O)[C@H](CO)CC[C@](C)(CCCC(C)C)[C@H]1/C=C/OC(=O)C=C(C)C` yielded an inhibition in assay [1] of 22.8%. On to `CC(C)=CCC[C@@]1(C)CC=C(COC(=O)CCC(=O)O)c2oc(C)cc2[C@@H]1/C=C/OC(=O)C=C(C)C`, for which, in assay [4], the result was Active. Moreover, the negative-log IC50 (pIC50) in [5] was 4.77; in assay [6], < 4.40; in [2] it was 6.57; in assay [7], < 4.40; in assay [8], < 4.40; in assay [11], < 4.40. Besides, the inhibition result is “Dose-Dependent Effect” in [9], “Dose-Dependent Effect” in assay [10] and 88.2% in assay [1].

For the compound `CC(C)=CCC[C@]1(C)/C=C/[C@@H](OC(=O)C=C(C)C)[C@](C)(O)/C=C/C(=O)/C(CN2CCN(C)CC2)=C\C1`, the negative-log IC50 (pIC50) in assay [2] was 6.01. The same compound registered an inhibition in [1] of 93.6%.

As for `CC(=O)C[C@@H]1C(=O)C(CO)=CC[C@](C)(CCC=C(C)C)[C@H]1/C=C/OC(=O)C=C(C)C`, the inhibition in [1] was determined as 30%.

As to `CC(=O)O[C@H]1C(=O)[C@@]2(C)[C@H]([C@H](OC(=O)c3ccccc3)[C@]3(O)C[C@H](OC(=O)[C@H](O)[C@@H](NC(=O)c4ccccc4)c4ccccc4)C(C)=C1C3(C)C)[C@]1(OC(C)=O)CO[C@@H]1C[C@@H]2O` [PACLITAXEL], the negative logarithm of the IC50 (pIC50) in assay [5] is > 8.10; in [6], > 8.10; in assay [7], 7.01; in [8], > 8.10; in assay [11] it was > 8.10. With `CC(C)=CCC[C@@]1(C)CC=C(CF)c2[nH]c(C)cc2[C@@H]1/C=C/OC(=O)C=C(C)C`, the negative-log IC50 (pIC50) in [2] was 5.44. For the same compound, the inhibition in assay [1] was determined as 68.8%. Regarding `CC(C)=CCC[C@@]1(C)CC=C(C=O)c2[nH]c(C)c(Cl)c2[C@@H]1/C=C/OC(=O)C=C(C)C`, the inhibition in [1] amounted to 45%. In [2], `CC(C)=CCC[C@@]1(C)CC=C(COC(=O)c2ccc3cc[nH]c3c2)c2nnc(C)cc2[C@@H]1/C=C/OC(=O)C=C(C)C` showed a pIC50 of 5.34. The compound further came in with an inhibition in [1] of 66.6%. As to `CC(C)=CCC[C@@]1(C)CC=C(COC(=O)CCC(=O)O)c2nnc(C)cc2[C@@H]1/C=C/OC(=O)C=C(C)C`, the negative logarithm of the IC50 (pIC50) was < 4.40 in assay [5]; < 4.40 in [6]; 6.57 in [2]; < 4.40 in assay [7]; < 4.40 in assay [8]; < 4.40 in assay [11]. The compound also registered an inhibition in assay [1] of 94.6%. `CC(C)=CCC[C@@]1(C)CC=C(CCl)c2oc(C)cc2[C@@H]1/C=C/OC(=O)C=C(C)C` displayed an inhibition in assay [1] of 32.6%. Consider `CC(=O)C[C@@H]1C(=O)C(CN2CCOCC2)=CC[C@](C)(CCC=C(C)C)[C@H]1/C=C/OC(=O)C=C(C)C`, for which the inhibition in [1] is 14.2%. `CC(=O)C[C@@H]1C(=O)C(CO)=CC[C@](C)(CCC(=O)C(C)C)[C@H]1/C=C/OC(=O)C=C(C)C` yielded an inhibition in assay [1] of 0.69%.

Turning to `CC(=O)C[C@@H]1C(=O)C(CO)=CC[C@](C)(CCC2OC2(C)C)[C@H]1/C=C/OC(=O)C=C(C)C` (stereo partly specified), in [1], the inhibition was 36.6%. `CC(C)=CCC[C@@]1(C)CC=C(CN2CCOCC2)c2[nH]c(C)cc2[C@@H]1/C=C/OC(=O)C=C(C)C` displayed an inhibition in assay [1] of 6.37%.

Compound `CC(C)=CCC[C@@]1(C)CC=C(COC(=O)CCC(=O)Nc2ccc(F)cc2)c2nnc(C)cc2[C@@H]1/C=C/OC(=O)C=C(C)C` gave an inhibition in [1] of 54.1%. Regarding `CC(=O)C[C@@H]1C(=O)C(COC(=O)c2cc(Cl)ccc2N)=CC[C@](C)(CCC=C(C)C)[C@H]1/C=C/OC(=O)C=C(C)C`, the pIC50 in [2] is 5.39. Moreover, the inhibition in [1] amounted to 61.8%. In turn, `CC(C)=CCC[C@@]1(C)CC=C(CO)[C@H]2O[C@](C)(O)C[C@H]2[C@@H]1/C=C/OC(=O)C=C(C)C` displayed an inhibition in [1] of 14.2%. In turn, `CC(C)=CCC[C@@]1(C)CC=C(COC(=O)CCC(=O)Nc2ccc(F)cc2)c2[nH]c(C)cc2[C@@H]1/C=C/OC(=O)C=C(C)C` registered an inhibition in [1] of 48%. In the case of `CC(C)=CCC[C@@]1(C)CC=C(CO)C(=O)[C@H]2C[C@@](C)(O)[C@@H](C=O)[C@@H]21`, the inhibition in assay [1] came to 13.3%. For the compound `CC(=O)C[C@@H]1C(=O)C(CS)=CC[C@](C)(CCC=C(C)C)[C@H]1/C=C/OC(=O)C=C(C)C`, the inhibition in assay [1] was found to be 0.32%.

The compound `CC(C)=CCC[C@@]1(C)CC=C(CCl)c2nnc(C)cc2[C@@H]1/C=C/OC(=O)C=C(C)C` showed a negative logarithm of the IC50 (pIC50) in [2] of 5.63. This compound also yielded an inhibition in [1] of 85.9%. Turning to `CC(=O)C[C@@H]1C(=O)C(COC(C)=O)=CC[C@](C)(CCC=C(C)C)[C@H]1/C=C/OC(=O)C=C(C)C`, the inhibition in assay [1] came out at 34.9%.

For `CC(C)=CCC[C@@]1(C)CC=C(CNc2ccc(F)cc2)c2nnc(C)cc2[C@@H]1/C=C/OC(=O)C=C(C)C`, the inhibition in assay [1] amounted to 49.3%. As for `CC(C)=CCC[C@@]1(C)CC=C(CN2CCN(C(C)C)CC2)c2nnc(C)cc2[C@@H]1/C=C/OC(=O)C=C(C)C`, the inhibition in [1] came out at 20.1%. In assay [1], `CC(C)=CCC[C@@]1(C)CC=C(CO)c2nnc(C)cc2[C@@H]1/C=C/OC(=O)C=C(C)C` showed an inhibition of 23.6%.

As to `CC(C)=CCC[C@@]1(C)CC=C(CF)c2nnc(C)cc2[C@@H]1/C=C/OC(=O)C=C(C)C`, the negative-log IC50 (pIC50) in assay [5] was 5.46; in assay [6], 4.74; in assay [2], 6.43; in assay [7], 4.80; in assay [8] it was 4.75; in [11] it was 4.69. Also, the inhibition in assay [1] turned out to be 77.8%. In the case of `CC(=O)C[C@@H]1C(=O)C(COC(=O)CCC(=O)O)=CC[C@](C)(CCC=C(C)C)[C@H]1/C=C/OC(=O)C=C(C)C`, the pIC50 in assay [2] is 5.12. This compound registered an inhibition in assay [1] of 66.8%. The compound `CC(C)=CCC[C@@]1(C)CC=C(COC(=O)c2ccc3cc[nH]c3c2)c2oc(C)cc2[C@@H]1/C=C/OC(=O)C=C(C)C` returned an inhibition in [1] of 42.9%. `CC(C)=CCC[C@@]1(C)CC=C(CO)c2oc(C)cc2[C@@H]1/C=C/OC(=O)C=C(C)C` returned an inhibition in [1] of 82.3%. In [1], `CC(=O)C[C@@H]1C(=O)C(COC(=O)c2ccccc2)=CC[C@](C)(CCC=C(C)C)[C@H]1/C=C/OC(=O)C=C(C)C` had an inhibition of 36.9%.

In [2], `CC(C)=CCC[C@@]1(C)CC=C(COC(=O)CCC(=O)O)c2[nH]c(C)cc2[C@@H]1/C=C/OC(=O)C=C(C)C` gave a negative logarithm of the IC50 (pIC50) of 5.22. This compound gave an inhibition in assay [1] of 71%. `CC(C)=CCC[C@@]1(C)CC=C(COC(=O)CCC(=O)Nc2ccc(F)cc2)c2oc(C)cc2[C@@H]1/C=C/OC(=O)C=C(C)C` returned an inhibition in assay [1] of 57%.
